From patent publication US9809623B2, “α4β7 peptide monomer and dimer antagonists” (Protagonist Therapeutics, Inc., priority 2014, dated 2017)
Numbered stars: 1 amine (or outer) side, 2 acyl side, 3 side chain; on linkers, the order of the positions; unused ones are H or OH. Bridge positions count the residues as written; N and C are the ends. Square brackets hold non-standard residues; d marks the D form. Peptide text beside a SMILES is read from it. I, II: the chains in the order shown. ξ: configuration not given here. Phe(4-tBu) = CC(C)(C)c1ccc(C[C@H](N)C(=O)O)cc1; Diglycolyl = O=C(COCC(=O)[*:2])[*:1]; NMeR = CN[C@@H](CCCNC(=N)N)C(=O)O; β3hE = N[C@@H](CCC(=O)O)CC(=O)O; Thr(3ξ) = CC(O)[C@H](N)C(=O)O; Pen = CC(C)(S)[C@H](N)C(=O)O

Experiments:
[1] = test system: α4β7 receptor; test: 7 day oral study, FACS receptor occupancy, α4β7 expression and circulating T cells; assay type: in vivo, cynomolgus monkey
Description: In certain embodiments for FACS analysis, heparinized whole blood from animals *e.g., cyanos) is stained with each of two panels of antibodies to evaluate (1) the extent of α4β7 receptor occupancy in samples treated with a peptide dimer compound or peptide monomer compound described herein; and (2) the abundance of circulating α4β7+, αEβ7+, and α4β7+αEβ7+ lymphocyte subsets. Receptor occupancy and integrin expression are assessed within memory CD4 T cells, naïve CD4 T cells, and B cells. To evaluate receptor occupancy, whole blood samples are first treated with 1 mM MnCl2 to allow peptide binding, and then pre-incubated+/−1 uM unlabeled peptide to fully occupy (i.e., block) the α4β7 receptor. Blocked and unblocked samples were stained with 1 nM Alexa 647-labeled peptide, followed by staining with antibodies against α4β7, CD45, CD4, CD45RA, and CD19. Samples are processed to lyse erythrocytes and fix leukocytes, followed by staining with a second-step reagent (streptavidin-BV421) and wash steps. To assess integrin expression and cell subset abundance, whole blood samples are stained with antibodies against α4, β7, and αE, in addition to antibodies against CD45, CD4, CD45RA, and CD19. Samples are processed to lyse erythrocytes and fix leukocytes, followed by staining with a second-step reagent (streptavidin-BV421) and wash steps. The stained samples are analyzed by flow cytometry, collecting a constant sample volume to allow calculation of absolute cell counts.
To further evaluate the in vivo properties of Peptide X in a higher species, cynomolgus monkeys were dosed with Peptide X for 7 days. Dosing was oral (nasogastric intubation) once daily. Whole blood (about 3.5 mL) was collected on Day 0 (prior to dosing) and Day 6 (1 hour post the last dose) for PK and PD analysis. On Day 6, blood was also collected from a non-dosed animal. For PD, FACS analysis was used to measure receptor occupancy, down-regulation of α4β7 expression and circulating levels of T cells expressing the integrin α4β7.
For FACS analysis, heparinized whole blood from the cynos was stained with each of two panels of antibodies to evaluate (1) the extent of α4β7 receptor occupancy in Peptide X-treated samples and (2) the abundance of circulating α4β7+, αEβ7+, and α4β7+αEβ7+ lymphocyte subsets. Receptor occupancy and integrin expression were assessed within memory CD4 T cells, naïve CD4 T cells, and B cells. To evaluate receptor occupancy, whole blood samples were first treated with 1 mM MnCl2 to allow Peptide X binding, and then pre-incubated+/−1 uM unlabeled Peptide X to fully occupy (i.e., block) the α4β7 receptor. […] All stained samples were analyzed by flow cytometry, collecting a constant sample volume to allow calculation of absolute cell counts.

[2] = biological target: αLβ2 (Homo sapiens, UniProt P05107+P20701); test: IC50 for αLβ2 (assay not further described)
Description: Biochemical competition ELISA assays were performed for α4β7 and α4β1 integrins. The ELISA assay for α4β7 is based on binding of MAdCAM-1 to immobilized α4β7, whereas the α4β1 ELISA relies on binding of soluble α4β1 to immobilized VCAM-1. These assays are described in Example 2. Under 1 mM Mg^2+ binding conditions, the IC50 for Peptide X was 3 nM and >10,000 nM for α4β7 and α4β1, respectively. In addition, the IC50 for Peptide X was >100 uM for both α4β1 and αLβ2. The IC50 of Peptide X for α4β7 T cells was 1 nM.

[3] = test system: αEβ7 integrin; test: FACS binding in cynomolgus monkey blood (α4β7 / αEβ7 expressing cells); assay type: cell-based; details: cynomolgus monkey blood
Description: Blood from cynomolgus monkeys was also analyzed by FACS.
Binding to αEβ7 integrin in cyno blood was also tested. Cyno blood was incubated with 1 nM Peptide X-Alexa 647, and cells expressing α4β7 or αEβ7 were analyzed by FACS. […] Binding to α4β7 was specific, because it could be blocked in the presence of a large excess (1 uM) of unlabeled Peptide X. Therefore under these conditions, it was concluded that Peptide X binds α4β7, not αEβ7.

Sequence of αLβ2 (P20701 26-1170): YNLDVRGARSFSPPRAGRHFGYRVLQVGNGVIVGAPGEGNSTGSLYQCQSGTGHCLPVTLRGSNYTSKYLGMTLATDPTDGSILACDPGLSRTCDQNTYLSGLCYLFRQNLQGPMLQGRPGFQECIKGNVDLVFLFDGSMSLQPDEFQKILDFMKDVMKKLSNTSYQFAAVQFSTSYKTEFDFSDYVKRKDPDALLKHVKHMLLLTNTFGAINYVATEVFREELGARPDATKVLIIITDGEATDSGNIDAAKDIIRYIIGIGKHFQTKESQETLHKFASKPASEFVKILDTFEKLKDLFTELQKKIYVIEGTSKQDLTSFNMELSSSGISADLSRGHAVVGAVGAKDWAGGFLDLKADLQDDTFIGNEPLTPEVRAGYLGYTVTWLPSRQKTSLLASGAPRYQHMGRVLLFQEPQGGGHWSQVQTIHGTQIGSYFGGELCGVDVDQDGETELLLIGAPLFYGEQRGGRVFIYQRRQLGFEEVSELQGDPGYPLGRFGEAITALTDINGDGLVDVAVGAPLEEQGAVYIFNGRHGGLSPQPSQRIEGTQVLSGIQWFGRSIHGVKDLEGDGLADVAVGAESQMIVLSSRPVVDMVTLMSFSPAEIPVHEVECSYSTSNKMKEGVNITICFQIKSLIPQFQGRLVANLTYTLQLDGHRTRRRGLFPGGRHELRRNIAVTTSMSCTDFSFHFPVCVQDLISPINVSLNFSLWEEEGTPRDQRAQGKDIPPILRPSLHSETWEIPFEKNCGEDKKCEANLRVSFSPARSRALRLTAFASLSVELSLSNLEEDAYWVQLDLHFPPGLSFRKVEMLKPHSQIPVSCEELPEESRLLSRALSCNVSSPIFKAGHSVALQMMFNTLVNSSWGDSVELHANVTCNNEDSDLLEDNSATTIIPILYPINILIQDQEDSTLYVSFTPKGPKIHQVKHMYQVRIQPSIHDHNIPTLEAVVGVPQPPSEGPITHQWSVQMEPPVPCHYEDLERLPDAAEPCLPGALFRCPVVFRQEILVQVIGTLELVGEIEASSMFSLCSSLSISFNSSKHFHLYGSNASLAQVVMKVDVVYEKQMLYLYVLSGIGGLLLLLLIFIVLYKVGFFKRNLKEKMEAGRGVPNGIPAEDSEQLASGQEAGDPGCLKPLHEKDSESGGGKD
Sequence of αLβ2 (P05107 23-769): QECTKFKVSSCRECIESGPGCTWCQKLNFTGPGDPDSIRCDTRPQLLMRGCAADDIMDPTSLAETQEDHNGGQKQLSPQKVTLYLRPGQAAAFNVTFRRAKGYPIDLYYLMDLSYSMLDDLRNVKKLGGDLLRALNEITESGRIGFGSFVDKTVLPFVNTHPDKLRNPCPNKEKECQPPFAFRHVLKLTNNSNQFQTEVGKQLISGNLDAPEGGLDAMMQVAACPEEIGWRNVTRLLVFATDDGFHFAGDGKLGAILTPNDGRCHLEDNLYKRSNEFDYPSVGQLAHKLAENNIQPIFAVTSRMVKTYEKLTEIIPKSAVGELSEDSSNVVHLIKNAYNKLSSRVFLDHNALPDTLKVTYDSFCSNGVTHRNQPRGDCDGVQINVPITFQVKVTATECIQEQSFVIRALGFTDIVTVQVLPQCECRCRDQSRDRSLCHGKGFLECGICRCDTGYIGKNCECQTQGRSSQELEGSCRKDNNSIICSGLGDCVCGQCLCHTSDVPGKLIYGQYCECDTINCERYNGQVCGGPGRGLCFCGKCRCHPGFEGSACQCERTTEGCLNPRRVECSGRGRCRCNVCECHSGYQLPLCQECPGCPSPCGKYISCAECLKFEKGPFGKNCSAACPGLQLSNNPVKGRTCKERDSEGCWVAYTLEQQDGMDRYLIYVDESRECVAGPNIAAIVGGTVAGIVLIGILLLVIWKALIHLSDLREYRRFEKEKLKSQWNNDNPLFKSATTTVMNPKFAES

CC(=O)N[C@@H]1C(=O)N(C)[C@@H](CCCNC(=N)N)C(=O)N[C@@H](CO)C(=O)N[C@@H](CC(=O)O)C(=O)N[C@@H](C(C)O)C(=O)N[C@@H](CC(C)C)C(=O)N[C@H](C(=O)N[C@@H](Cc2ccc(C(C)(C)C)cc2)C(=O)N[C@@H](CCC(=O)O)CC(=O)N[C@H](CCCCNC(=O)COCC(=O)NCCCC[C@@H](NC(=O)C[C@H](CCC(=O)O)NC(=O)[C@H](Cc2ccc(C(C)(C)C)cc2)NC(=O)[C@H]2NC(=O)[C@H](CC(C)C)NC(=O)[C@H](C(C)O)NC(=O)[C@H](CC(=O)O)NC(=O)[C@H](CO)NC(=O)[C@H](CCCNC(=N)N)N(C)C(=O)[C@@H](NC(C)=O)C(C)(C)SSC2(C)C)C(N)=O)C(N)=O)C(C)(C)SSC1(C)C (stereo partly drawn) [Peptide X, [Ac-Pen-(N-Me-Arg)-Ser-Asp-Thr-Leu-Pen-(Phe(4-tBu))-(β-homoGlu)-(D-Lys)]2-DIG] (I: Ac-[Pen][NMeR]SD[Thr(3ξ)]L[Pen][Phe(4-tBu)][β3hE][dK]-NH2 / II: Ac-[Pen][NMeR]SD[Thr(3ξ)]L[Pen][Phe(4-tBu)][β3hE][dK]-NH2; disulfide I:1-I:7, II:1-II:7; linker I:10-II:10 via Diglycolyl)
α4β7 expression on CD4 memory T cells ([1]; all doses, Day 6 vs Day 0): decreased at all doses | EC50 ([1]; by extrapolation, estimated, read-out: plasma concentration sufficient to occupy 50% of the α4β7 receptors in the blood): ~0.35 nM | percentage of α4β7+ memory T cells normalized to total CD4 cells ([1]; cyno blood): increase | percent receptor occupancy in blood ([1]; highest dose (75 mg/kg/day), oral once daily 7 days, CD4 memory α4β7+ T cells): exceeded 90% | IC50 [2]: > 100000 nM | binding site on α4β7 relative to vedolizumab [3]: binds to a site on α4β7 that is distinct from the binding site for vedolizumab
